Numbered stars: 1 amine (or outer) side, 2 acyl side, 3 side chain; on linkers, the order of the positions; unused ones are H or OH. Bridge positions count the residues as written; N and C are the ends. Square brackets hold non-standard residues; d marks the D form. Peptide text beside a SMILES is read from it. I, II: the chains in the order shown. Actinocin(9to1) = Cc1c2oc3c(C)ccc(C(=O)[*:1])c3nc-2c(C(=O)[*:2])c(N)c1=O; NMeV = CN[C@H](C(=O)O)C(C)C; Sar = CNCC(=O)O
Columns and labels:
Type in all cases: cell-based, human
HCT116 cells [1] = details: for inhibition of SUS-induced apoptosis: co-treatment with SUS 125 μM (CHX 10 μM; PGE2 10 μM)
Protocol: FIGS. 1A, 1B and 1C NSAID induce apoptosis in human colorectal cancer cells. In FIG. […] Cells were collected at the indicated times, fixed and stained with Hoechst 33258 (23). The cells were counted and those with fragmented nuclei were scored as apoptotic. In FIG. 1B, HCT116 and SW480 cells were treated with SUS or INDO for 60 hours, harvested and stained as described above. Cells treated with SUS or INDO show the hallmarks of apoptosis.
(§1) This death appeared to be apoptotic, as it was accompanied by nuclear condensation and fragmentation (FIG. 1B) and exposure of phosphatidylserine groups on the cell surface, two hallmarks of apoptosis (11, 12).

SW480 cells [2] = details: for inhibition of SUS-induced apoptosis: co-treatment with SUS 200 μM (CHX 10 μM; PGE2 10 μM); for effect on apoptosis: 200 μM fatty acid, 48 hours
HCT116 cells [3] = experiment: Arachidonic acid levels, release of 3H-AA into the media
Protocol: (§2) FIGS. 4A, 4B, 4C, 4D, 4E and 4F. The role of arachidonic acid in NSAID-mediated apoptosis. […] HCT116 and SW480 cells were treated with the indicated concentrations of SUS or INDO. Arachidonic acid (AA) levels were determined by measuring release of ^3 H-AA into the media as previously described (18). Data are indicated as the mean of three replicates with the error bars corresponding to the standard deviation. In addition, the nature of the released radiolabeled material was evaluated by thin layer chromatography as previously described (28). […] HCT116 and SW480 cells were incubated with ^3 H-choline chloride (0.5 mCi ml^-1, 80 Ci mmol^-1, New England Nuclear) for 48 hours. After labeling, cells were washed with HBSS (Gibco) and treated with SUS or INDO for the indicated times. Sphingomyelin measurements were performed using the bacterial sphingomyelinase method as previously described (18). Sphingomyelin levels at each time point are plotted as a percentage of that in untreated control cells. For each point, the mean of at least two independent experiments is presented with the error bars corresponding to the standard deviations. […] SW480 cells were treated with 200 μM arachidonic acid (AA), SUS (SUS) or behenic acid as a control fatty acid (FA) as indicated. […] SW480 cells were treated with suboptimal doses (100 μM) of arachidonic acid (AA), SUS (SUS), or both (AA+SUS) as indicated. After 48 hours of treatment, apoptosis and ceramide increases were assessed as described for FIGS. 1 and 3, respectively. Ceramide increases (left axis) were expressed as fold increases relative to untreated cells. Apoptosis (right axis) was expressed as percent apoptotic cells minus percent apoptotic cells in untreated cells (5.6%+/-2.4). Data are indicated as the mean of duplicates with the error bars corresponding to the standard deviation.
(§3) Arachidonic acid is known to stimulate neutral sphingomyelinase (18), which catalyzes the conversion of sphingomyelin to ceramide. We therefore considered the possibility that inhibition of COX activity might lead to increases in arachidonic acid, the substrate for COX. To test this hypothesis, we first determined whether SUS stimulated arachidonic acid accumulation. In both SW480 and HCT 116 cells, apoptosis-inducing doses of SUS increased arachidonic acid by 2 to 3 fold at 24 hours and by approximately 5 fold at 48 hours (FIGS. 4A and 4B). The arachidonic acid increase following SUS treatment was as great as that following treatment with mellitin, a known activator of phospholipase A2. Arachidonic acid levels in HCT116 cells increased 3.5 fold one hour after treatment with 1 μM mellitin. Likewise, arachidonic acid levels increased 2.9 fold in SW480 cells one hour after mellitin treatment. Arachidonic acid (AA) levels were determined by measuring release of ^3 H-AA into the media as previously described (18). The nature of released radiolabeled material was evaluated by thin layer chromatography analysis as previously described (28).

SW480 cells [4] = experiment: cells; details: for increase in arachidonic acid: sw480 cells
Protocol: as §2, §3

SW480 cells [5] = details: indomethacin treatment
Protocol: FIGS. 1A, 1B and 1C NSAID induce apoptosis in human colorectal cancer cells. In FIG. 1A, HCT116 and SW480 cells were treated with indomethacin (INDO) (300 μM) or SUS (125 μM for HCT116 and 200 μM for SW480 cells). Cells were collected at the indicated times, fixed and stained with Hoechst 33258 (23). The cells were counted and those with fragmented nuclei were scored as apoptotic. In FIG. 1B, HCT116 and SW480 cells were treated with SUS or INDO for 60 hours, harvested and stained as described above. Cells treated with SUS or INDO show the hallmarks of apoptosis.
as §1

HCT116 cells [6] = experiment: Ceramide levels, E. coli diacylglycerol (DAG) kinase assay; details: indomethacin treatment
Protocol: (§4) Cells were harvested and ceramide was quantified. The first lane of each panel corresponds to a ceramide standard (ceramide type III, Sigma). […] HCT116 and SW480 cells were treated with SUS or INDO as indicated. Ceramide levels were determined as described above. […] Control cells were treated with DMSO vehicle only. Cells were harvested at the indicated times following treatment and ceramide levels were determined as described above. The data are plotted as the mean of at least two experiments with the error bars corresponding to the standard deviation.
(§5) Ceramide levels were measured using the Escherichia coli diacylglycerol (DAG) kinase assay as previously described (30) with the following modifications. After the initial lipid extraction, phases were broken by adding 2 ml chloroform and 2 ml 1M NaCl and lipids were washed with 1M NaCl prior to drying under nitrogen (32, 33). After solubilization, samples were sonicated for 15 seconds. The DAG reaction was performed for 30 minutes at 25° C. in a 100 μl reaction volume with 3.5 μg DAG kinase (Calbiochem) and […] γ^32 P-ATP (Dupont NEN, 6000 Ci/mmol). After extraction of the labeled lipids, the lower chloroform phase was washed with 1% HCl prior to drying under nitrogen. The solvent mixture for thin layer chromatography was chloroform:acetone:methanol:acetic acid:water (10:4:3:2:1). Samples were quantitated using a Phosphorimager (Molecular Dynamics).

SW480 cells [7] = experiment: as above; details: for effect on ceramide levels: 48 hours
Protocol: as §4, §5

HCT116 cells [8] = experiment: Sphingomyelin levels, bacterial sphingomyelinase method; details: indomethacin treatment
Protocol: as §2
(§6) To test whether the increased ceramide was associated with evidence of augmented sphingomyelinase activity, we measured total sphingomyelin levels after SUS treatment. […] We also measured neutral sphingomyelinase activity in lysates from the treated cells and no differences were found. Neutral sphingomyelinase activity was assayed as described (18). After cell lysis, protein concentrations were determined using the Bradford method (Bio-Rad) and […] cellular protein was used in each assay. Neutral sphingomyelinase activity was determined by measuring the rate of hydrolysis of ^14 C-labelled sphingomyelin (Amersham). SW480 and HCT116 cell lines were treated with SUS (50, 200, and 600 μM) for 6 to 24 hours.

SW480 cells [9] = experiment: as above; details: indomethacin treatment
Protocol: as §2, §6

## C[C@@H]1C[C@@H]([C@H](O)CC2CC(=O)NC(=O)C2)C(=O)[C@@H](C)C1 [cycloheximide]
HCT116 cells [1]
  inhibition of SUS-induced apoptosis: completely inhibit apoptosis
SW480 cells [2]
  inhibition of SUS-induced apoptosis: completely inhibit apoptosis
SW480 cells [2]; higher concentrations of SUS
  inhibition of SW480 cell death: could not inhibit

## mellitin
HCT116 cells [3]; one hour after 1 μM mellitin
  increase in arachidonic acid levels: 3.5 fold
SW480 cells [4]; one hour after mellitin treatment, 60 min
  increase in arachidonic acid levels: 2.9 fold

## COc1ccc2c(c1)c(CC(=O)O)c(C)n2C(=O)c1ccc(Cl)cc1 [indomethacin]
HCT116 cells [1]; indomethacin treatment
  induction of apoptosis compared with SUS: to similar degrees as SUS
SW480 cells [5]
  induction of apoptosis compared with SUS: to similar degrees as SUS
SW480 cells [5]; cycloheximide sensitive
  cells induced to undergo apoptosis: 94%
HCT116 cells [6]
  increase of ceramide concentration compared with SUS: to similar degrees as SUS
SW480 cells [7]; indomethacin treatment
  increase in ceramide levels: 6 fold
  increase of ceramide concentration compared with SUS: to similar degrees as SUS
HCT116 cells [3]; indomethacin treatment
  increase of arachidonic acid concentration compared with SUS: to similar degrees as SUS
SW480 cells [4]; indomethacin treatment
  increase of arachidonic acid concentration compared with SUS: to similar degrees as SUS
SW480 cells [4]
  increase in arachidonic acid: 3-4 fold
HCT116 cells [8]
  activation of sphingomyelin hydrolysis compared with SUS: to similar degrees as SUS
SW480 cells [9]
  activation of sphingomyelin hydrolysis compared with SUS: to similar degrees as SUS

## CCCCC[C@H](O)/C=C/[C@H]1[C@H](O)CC(=O)[C@@H]1C/C=C\CCCC(=O)O [prostaglandin E2]
HCT116 cells [1]
  inhibition of SUS-induced apoptosis: No inhibition of apoptosis was observed
SW480 cells [2]
  inhibition of SUS-induced apoptosis: No inhibition of apoptosis was observed

## ceramide
HCT116 cells [1]; human, hct116 cells, 16 h, 100 µM
  induction of apoptosis: > 90%
HCT116 cells [3]; hct116 cells, 16 h, 100 µM
  increase in arachidonic acid: 1.5 fold
SW480 cells [4]; 16 h, 100 µM
  increase in arachidonic acid: 1.9 fold
SW480 cells [2]; human, sw480 cells, 16 h, 100 µM
  induction of apoptosis: > 90%

## CCCCC/C=C\C/C=C\C/C=C\C/C=C\CCCC(=O)O [arachidonic acid]
SW480 cells [7]; 200 μM fatty acid
  effect on ceramide levels: a potent inducer of ceramide and apoptosis
SW480 cells [7]; suboptimal doses, 100 μM each, separately or together
  effect on ceramide levels: little effect on ceramide levels
SW480 cells [2]
  effect on apoptosis: a potent inducer of ceramide and apoptosis

## Cc1c2oc3c(C)ccc(C(=O)N[C@@H]4C(=O)N[C@H](C(C)C)C(=O)N5CCC[C@H]5C(=O)N(C)CC(=O)N(C)[C@@H](C(C)C)C(=O)O[C@@H]4C)c3nc-2c(C(=O)N[C@@H]2C(=O)N[C@H](C(C)C)C(=O)N3CCC[C@H]3C(=O)N(C)CC(=O)N(C)[C@@H](C(C)C)C(=O)O[C@@H]2C)c(N)c1=O [actinomycin D] (I: T[dV]P[Sar][NMeV] / II: T[dV]P[Sar][NMeV]; ester I:1-I:C, II:1-II:C; linker I:N-II:N via Actinocin(9to1))
HCT116 cells [1]
  inhibition of SUS-induced apoptosis: completely inhibit apoptosis
SW480 cells [2]
  inhibition of SUS-induced apoptosis: completely inhibit apoptosis

## CCCCCCCCCCCCCCCCCCCCCC(=O)O [behenic acid]
SW480 cells [7]; 200 μM fatty acid
  effect on ceramide levels: virtually no effect on ceramide levels and apoptosis
SW480 cells [2]
  effect on apoptosis: virtually no effect on ceramide levels and apoptosis

— US5874235A, “Screening assays for cancer chemopreventative agents” (The Johns Hopkins University, priority 1997, dated 1999)
